Assay type in all cases: biochemical
Assay [1] concerns the target T1, Recombinant MMP-2 (Homo sapiens, UniProt P08253).
T1 construct: made in house
T1 sequence (P08253 110-660): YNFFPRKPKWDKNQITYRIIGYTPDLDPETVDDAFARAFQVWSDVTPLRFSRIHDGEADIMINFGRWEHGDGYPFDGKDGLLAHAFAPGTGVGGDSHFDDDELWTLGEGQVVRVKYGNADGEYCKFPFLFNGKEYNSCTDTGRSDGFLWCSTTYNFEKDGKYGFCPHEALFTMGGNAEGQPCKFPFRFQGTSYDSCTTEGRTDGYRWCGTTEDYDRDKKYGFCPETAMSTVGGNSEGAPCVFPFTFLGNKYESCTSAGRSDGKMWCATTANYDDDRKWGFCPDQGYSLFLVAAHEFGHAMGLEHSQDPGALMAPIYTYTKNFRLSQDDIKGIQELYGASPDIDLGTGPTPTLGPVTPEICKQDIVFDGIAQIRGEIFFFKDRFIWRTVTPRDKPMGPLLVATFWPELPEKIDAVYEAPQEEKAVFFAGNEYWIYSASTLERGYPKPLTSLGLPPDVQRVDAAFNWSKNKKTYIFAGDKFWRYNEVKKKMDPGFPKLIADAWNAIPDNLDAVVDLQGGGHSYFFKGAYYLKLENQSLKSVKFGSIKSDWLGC
Put plainly: MMP-2 enzyme assay with DQ gelatin fluorescent substrate. The following applies: 22° C., EAB pH 7.0, soluble phase of extracts. As for the experimental part: (§1) From the studies of repeated activity and lack of interference, we were able to identify three lead ingredients for further development (A, C, D; A & B were two forms of the same dried extract). These were tested in a second laboratory, using a more sensitive in vitro (non-cellular) assay system, again for individual activity and interference/synergy among MMP-inhibitors and the IL-1-inhibitor against all three forms of MMP. These assays used enzyme kinetic dose curves to determine the IC50 of each extract, Doxycyclin, and combinations of extracts (including the IL-1-inhibitor, e.g., Rosehips).
MMP-2 and MMP-9: Recombinant MMP-2 and MMP-9 were expressed as recombinant proteins and purified in constitutively active forms.
DQ gelatin: A highly labeled porcine gelatin substrate (Molecular Probes, Eugine, Oreg.) was used for the enzyme assays with MMP-2 and MMP-9. The substrate degradation was measured with λex at 494 nm and λem at 515 nm
To reduce any self-degradation of the gelatin substrate, all assays were performed at 22° C. The enzyme assay buffer (EAB) used for MMP-2, MMP-9, and MMP-8 was 50 mM Tris, pH 7.0, 200 mM NaCl, 5 mM CaCl2, 1 μM ZnCl2, 0.05% Brij 35. Assays were performed under conditions where the substrates were not rate limiting. […]

Assay [2] has as its target T2, MMP-8 (purified human neutrophil collagenase) (Homo sapiens, UniProt P22894).
T2 construct: purchased EMD Biosciences/Calbiochem 444229
Put plainly: MMP-8 enzyme assay with fluorescent peptide substrate. The following applies: APMA-activated MMP-8, 22° C., EAB pH 7.0. Here is the method:
as §1
MMP-8: Purified human neutrophil collagenase was purchased from EMD
Biosciences/Calbiochem, cat # 444229. Activation of MMP-8 was required for the experiments and was performed using aminophenylmercuric acetate (APMA) for 2 h at 37° C.
Peptide substrate: The fluorescent peptide substrate Mca-Pro-Leu-Gly-Leu-Dnp-Ala-Arg-NH2 was for measuring the MMP-8 activities (Peptides International, Louisville, Ky.). The Mca is a fluorescent group and Dnp is a quencher. When the cleavage occurs, a strong fluorescent signal is released and can be measured with λex at 328 nm and λem at 393 nm.
To reduce any self-degradation of the gelatin substrate, all assays were performed at 22° C. […]

Assay [3] deals with T3, MMP-8 (Homo sapiens, UniProt P22894).
T3 construct: purchased BIOMOL
T3 sequence (P22894 100-262 limits assumed): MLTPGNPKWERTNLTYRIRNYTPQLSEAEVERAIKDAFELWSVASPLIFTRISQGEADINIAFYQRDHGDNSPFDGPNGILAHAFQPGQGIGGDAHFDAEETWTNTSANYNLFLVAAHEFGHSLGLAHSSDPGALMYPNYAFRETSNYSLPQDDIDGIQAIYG
Put plainly: BIOMOL colorimetric assay kit screen of botanical extracts, MMP-8 proteolytic activity. The following applies: first round screening; relative to Doxycycline. An excerpt:
(§2) In excess of 80 botanical extracts (BE), were screened in vitro for inhibition against MMP-2, 8, & 9 proteolytic activity. […] Individual calorimetric assay kits (BIOMOL) were used according to the manufacturer's instructions to measure the proteolytic activity of MMP's-2, 8, and 9 in the presence or absence of individual extracts and define mixtures of extracts. The known MMP-inhibitor, Doxycycline was used as an internal standard for comparison of inhibiting activity. The following final concentrations of individual ingredients are combined (along with additional confirmatory test of the “neat” ingredients). Again all tests include a “gold standard” positive control (Doxycycline). The purpose of this interference testing is to see whether combined ingredients result in different levels of inhibition for all three MMP's (2, 8, 9) than found for individual ingredients. All samples are dissolved or extracted in water where practical and otherwise specified.

The subject of assay [4] is MMP-2 or 9. Put plainly: BIOMOL colorimetric assay kit screen of botanical extracts, MMP-2 or 9 proteolytic activity. The following applies: first round screening; relative to Doxycycline.
Excerpt: as §2

T2 sequence (P22894 101-467): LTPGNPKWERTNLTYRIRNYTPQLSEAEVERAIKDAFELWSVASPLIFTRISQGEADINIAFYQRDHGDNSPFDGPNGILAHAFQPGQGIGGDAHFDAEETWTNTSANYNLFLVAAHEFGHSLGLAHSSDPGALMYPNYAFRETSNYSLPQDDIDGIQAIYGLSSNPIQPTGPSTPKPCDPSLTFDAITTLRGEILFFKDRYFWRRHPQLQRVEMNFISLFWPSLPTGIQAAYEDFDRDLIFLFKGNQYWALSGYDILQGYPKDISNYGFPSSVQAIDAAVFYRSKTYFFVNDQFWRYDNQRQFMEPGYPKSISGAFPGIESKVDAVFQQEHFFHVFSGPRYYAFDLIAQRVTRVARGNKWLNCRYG

In the case of `C[C@H]1c2cccc(O)c2C(O)=C2C(=O)[C@]3(O)C(O)=C(C(N)=O)C(=O)[C@@H](N(C)C)[C@@H]3[C@@H](O)[C@@H]21` [DOX, Doxycycline], in assay [1], the “IC50 for MMP-2” value was determined as 32 µg/mL. The “IC50 for MMP-8” value in assay [2] was found to be 35 µg/mL.
Regarding `O=c1c(O)c(-c2ccc(O)c(O)c2)oc2cc(O)cc(O)c12` [E) Quercetin, Quercetin], the “Inhib. Relative to Doxy. (Fold = % inhib X/% inhib Dox), MMP-8” value in assay [3] was 0.82 Fold. Further, the “Inhib. Relative to Doxy. (Fold = % inhib X/% inhib Dox), MMP-2 or 9” value in assay [4] is given as 1.56 Fold.

Source of the values: US20070275104A1, “Food Compositions and Methods of Treating Periodontal Disease” (priority 2006, published 2007).
